Measured values as given in patent US20240132431A1, “METHOD FOR ALKYLATING ACIDIC FUNCTIONAL GROUP” (Chugai Seiyaku Kabushiki Kaisha, priority 2021, published 2024).
Each block holds one compound with its values, some of them ahead of it.

Target: T1, Bcl-2 protein (Recombinant Human Bcl-2 Protein) (Homo sapiens, UniProt P10415)
T1 construct: purchased Novus NBP2-34889
Test: Binding evaluation of mixture library compounds to Bcl-2 using AS-MS (affinity selection mass spectrometry)
Conditions: for ASMS ratio (%) n = 1 / ASMS ratio (%) n = 2: ASMS Ratio(%)=(A−C)/B×100; for ASMS ratio (%) n = 1: replicate n = 1; for ASMS ratio (%) n = 2: replicate n = 2
How it was run: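 Affinity selection MS: Bcl-2 20 μM + 1200-cpd mixture, […]/cpd, Tris pH 7.4 buffer w/ Tween-20, DTT; 1 h 23° C dark; P-2 spin SEC; MeCN/MeOH extraction; RP LC/MS. ASMS Ratio(%) = (A−C)/B×100.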

[1] = AS-MS, mixture of 1200 compounds, Bcl-2
[2] = AS-MS on the mixture of 1200 library compounds

T1 sequence (P10415 whole entry): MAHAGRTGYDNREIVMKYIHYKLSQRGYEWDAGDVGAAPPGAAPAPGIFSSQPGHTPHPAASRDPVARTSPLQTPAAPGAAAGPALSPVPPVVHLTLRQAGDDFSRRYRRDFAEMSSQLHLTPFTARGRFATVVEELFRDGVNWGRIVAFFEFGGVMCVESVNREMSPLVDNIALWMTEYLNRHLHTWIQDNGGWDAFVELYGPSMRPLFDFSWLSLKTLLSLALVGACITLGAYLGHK

Compound: CCOc1cncc(-c2ccc(CN3CCN(c4ccc(C(=O)NCC(F)(F)F)nn4)CC3)c(OC)c2)c1 [B1K080-01, 6-[4-[[4-(5-Ethoxypyridin-3-yl)-2-methoxyphenyl]methyl]piperazin-1-yl]-N-(2,2,2-trifluoroethyl)pyridazine-3-carboxamide]
ASMS ratio (%) n = 1 [1]: 0.0%
ASMS ratio (%) n = 2 [1]: 0.0%

Compound: CCOc1cncc(-c2ccc(C(=O)N3CCN(c4ccc(C(=O)NS(=O)(=O)CC56CC7CC(CC(C7)C5)C6)nn4)CC3)c3ccccc23)c1 [B2A014-01, N-(1-Adamantylmethylsulfonyl)-6-[4-[4-(5-ethoxypyridin-3-yl)naphthalene-1-carbonyl]piperazin-1-yl]pyridazine-3-carboxamide]
ASMS ratio (%) n = 1 (AS-MS, mixture library, Bcl-2): 7.7%
ASMS ratio (%) n = 2 (AS-MS, mixture library, Bcl-2): 2.2%

Compound: CCOc1cncc(-c2ccc(C(C)N3CCN(c4ccc(C(=O)NS(=O)(=O)c5ccc(NCCSc6ccccc6)c(C(F)(F)F)c5)cc4)CC3)cc2)c1 (centres unmarked) [B2R098-01, 4-[4-[1-[4-(5-Ethoxypyridin-3-yl)phenyl]ethyl]piperazin-1-yl]-N-[4-(2-phenylsulfanylethylamino)-3-(trifluoromethyl)phenyl]sulfonylbenzamide]
ASMS ratio (%) (n = 1): 9.2%
ASMS ratio (%) (n = 2): 7.5%

Compound: CCOc1cccc(C#Cc2cc(C(=O)N3CCN(c4ccc(C(=O)NS(=O)(=O)c5ccc(NCCSc6ccccc6)c([N+](=O)[O-])c5)cc4)CC3)cc(C(F)(F)F)c2)c1 [B2Q041-01, 4-[4-[3-[2-(3-Ethoxyphenyl)ethynyl]-5-(trifluoromethyl)benzoyl]piperazin-1-yl]-N-[3-nitro-4-(2-phenylsulfanylethylamino)phenyl]sulfonylbenzamide]
ASMS ratio (%) n = 1 (AS-MS, mixture library, Bcl-2): 2.6%
ASMS ratio (%) n = 2 (AS-MS, mixture library, Bcl-2): 0.2%

Compound: CCOc1cncc(-c2cc(C(=O)N3CCN(c4ccc(C(=O)N(CC)CC)cc4)CC3)cc(C(F)(F)F)c2)c1 [B4J040-01, 4-[4-[3-(5-Ethoxypyridin-3-yl)-5-(trifluoromethyl)benzoyl]piperazin-1-yl]-N,N-diethylbenzamide]
ASMS ratio (%) n = 1 [2]: −0.5%
ASMS ratio (%) n = 2 [2]: −1.2%

Compound: 4-[4-[[3-(5-Ethoxypyridin-3-yl)-5-(trifluoromethoxy)phenyl]methyl]piperazin-1-yl]-N-propylbenzamide [B1M034-01]
ASMS ratio (%) n = 1 [1]: −0.3%
ASMS ratio (%) n = 2 [1]: −0.2%

Compound: CCOc1cccc(-c2ccccc2CN2CCN(c3ccc(C(=O)NS(=O)(=O)CCC(F)(F)F)cc3)CC2)c1 [B2N045-01, 4-[4-[[2-(3-Ethoxyphenyl)phenyl]methyl]piperazin-1-yl]-N-(3,3,3-trifluoropropylsulfonyl)benzamide]
ASMS ratio (%) (n = 1): 0.0%
ASMS ratio (%) (n = 2): 0.1%

Compound: CCOc1cncc(-c2csc(CN3CCN(c4ccc(C(=O)Nc5ccc(OC)cc5)nn4)CC3)c2)c1 [B1O094-01, 6-[4-[[4-(5-Ethoxypyridin-3-yl)thiophen-2-yl]methyl]piperazin-1-yl]-N-(4-methoxyphenyl)pyridazine-3-carboxamide]
ASMS ratio (%) n = 1 [2]: 2.2%
ASMS ratio (%) n = 2 [2]: −0.7%

Compound: CCOc1cccc(C#Cc2cncc(C(=O)N3CCN(c4ccc(C(=O)NS(=O)(=O)CCC(F)(F)F)nn4)CC3)c2)c1 [B2N009-01, 6-[4-[5-[2-(3-Ethoxyphenyl)ethynyl]pyridine-3-carbonyl]piperazin-1-yl]-N-(3,3,3-trifluoropropylsulfonyl)pyridazine-3-carboxamide]
ASMS ratio (%) (n = 1): 0.0%
ASMS ratio (%) (n = 2): −0.4%

Compound: CCOc1cncc(-c2ccc(CN3CCN(c4ccc(C(=O)NS(=O)(=O)CCC(F)(F)F)nn4)CC3)cc2F)c1 [B2N078-01, 6-[4-[[4-(5-Ethoxypyridin-3-yl)-3-fluorophenyl]methyl]piperazin-1-yl]-N-(3,3,3-trifluoropropylsulfonyl)pyridazine-3-carboxamide]
ASMS ratio (%) (n = 1): 0.0%
ASMS ratio (%) (n = 2): 0.0%

Compound: CCOc1cncc(-c2csc(C(=O)N3CCN(c4ccc(C(=O)N(C)CC56CC7CC(CC(C7)C5)C6)cc4)CC3)c2)c1 [B3A024-01, N-(1-Adamantylmethyl)-4-[4-[4-(5-ethoxypyridin-3-yl)thiophene-2-carbonyl]piperazin-1-yl]-N-methylbenzamide]
ASMS ratio (%) n = 1 [2]: 1.6%
ASMS ratio (%) n = 2 [2]: −0.4%

Compound: CCOc1cccc(-c2ccc(C(=O)N3CCN(c4ccc(C(=O)NCC(F)(F)F)nn4)CC3)c3ccccc23)c1 [B1K013-01, 6-[4-[4-(3-Ethoxyphenyl)naphthalene-1-carbonyl]piperazin-1-yl]-N-(2,2,2-trifluoroethyl)pyridazine-3-carboxamide]
ASMS ratio (%) n = 1 [1]: 0.0%
ASMS ratio (%) n = 2 [1]: 1.4%

Compound: CCOc1cccc(-c2csc(C(=O)N3CCN(c4ccc(C(=O)NCC(F)(F)F)cc4)CC3)c2)c1 [B1K023-01, 4-[4-[4-(3-Ethoxyphenyl)thiophene-2-carbonyl]piperazin-1-yl]-N-(2,2,2-trifluoroethyl)benzamide]
ASMS ratio (%) n = 1 [1]: 4.3%
ASMS ratio (%) n = 2 [1]: 1.3%

Compound: CCOc1cncc(C#Cc2cncc(C(=O)N3CCN(c4ccc(C(=O)N(CC)CC)cc4)CC3)c2)c1 [B4J032-01, 4-[4-[5-[2-(5-Ethoxypyridin-3-yl)ethynyl]pyridine-3-carbonyl]piperazin-1-yl]-N,N-diethylbenzamide]
ASMS ratio (%) n = 1 [2]: −7.2%
ASMS ratio (%) n = 2 [2]: 1.5%

Compound: CCOc1cncc(-c2cc(CN3CCN(c4ccc(C(=O)NS(=O)(=O)c5ccc(NCCSc6ccccc6)c(C(F)(F)F)c5)nn4)CC3)cc(C(F)(F)F)c2)c1 [B2R088-01, 6-[4-[[3-(5-Ethoxypyridin-3-yl)-5-(trifluoromethyl)phenyl]methyl]piperazin-1-yl]-N-[4-(2-phenylsulfanylethylamino)-3-(trifluoromethyl)phenyl]sulfonylpyridazine-3-carboxamide]
ASMS ratio (%) (n = 1): 35.3%
ASMS ratio (%) (n = 2): 13.1%

Compound: CCOc1cccc(C#Cc2ccccc2CN2CCN(c3ccc(C(=O)N(CC)CC)nn3)CC2)c1 [B4J095-01, 6-[4-[[2-[2-(3-Ethoxyphenyl)ethynyl]phenyl]methyl]piperazin-1-yl]-N,N-diethylpyridazine-3-carboxamide]
ASMS ratio (%) n = 1 (AS-MS, mixture library, Bcl-2): 1.5%
ASMS ratio (%) n = 2 (AS-MS, mixture library, Bcl-2): 0.0%

Compound: CCOc1cncc(-c2cc(C(=O)N3CCN(c4ccc(C(=O)NS(=O)(=O)c5ccc(NCCSc6ccccc6)c(C(F)(F)F)c5)cc4)CC3)cc(C(C)(C)C)c2)c1 [B2R038-01, 4-[4-[3-tert-Butyl-5-(5-ethoxypyridin-3-yl)benzoyl]piperazin-1-yl]-N-[4-(2-phenylsulfanylethylamino)-3-(trifluoromethyl)phenyl]sulfonylbenzamide]
ASMS ratio (%) (n = 1): 7.1%
ASMS ratio (%) (n = 2): −6.0%

Further lines, results first:

ASMS ratio (%) n = 1 (AS-MS, mixture library, Bcl-2): 19.9%
ASMS ratio (%) n = 2 (AS-MS, mixture library, Bcl-2): 11.9%
Compound: CCOc1cccc(C#Cc2ccccc2CN2CCN(c3ccc(C(=O)NS(=O)(=O)c4ccc(NCCSc5ccccc5)c([N+](=O)[O-])c4)nn3)CC2)c1 [B2Q095-01]

ASMS ratio (%) n = 1 [2]: 1.4%
ASMS ratio (%) n = 2 [2]: −3.6%
Compound: CCOc1cncc(-c2csc(CN3CCN(c4ccc(C(=O)N(C)CC56CC7CC(CC(C7)C5)C6)cc4)CC3)c2)c1 [B3A068-01, N-(1-Adamantylmethyl)-4-[4-[[4-(5-ethoxypyridin-3-yl)thiophen-2-yl]methyl]piperazin-1-yl]-N-methylbenzamide]

ASMS ratio (%) n = 1 [1]: 1.2%
ASMS ratio (%) n = 2 [1]: −0.3%
Compound: CCOc1cncc(-c2cc(CN3CCN(c4ccc(C(=O)NCC(F)(F)F)cc4)CC3)cc(C(F)(F)F)c2)c1 [B1K062-01, 4-[4-[[3-(5-Ethoxypyridin-3-yl)-5-(trifluoromethyl)phenyl]methyl]piperazin-1-yl]-N-(2,2,2-trifluoroethyl)benzamide]

ASMS ratio (%) n = 1 (AS-MS, mixture library, Bcl-2): 12.6%
ASMS ratio (%) n = 2 (AS-MS, mixture library, Bcl-2): 3.6%
Compound: CCOc1cncc(-c2ccc(CN3CCN(c4ccc(C(=O)NS(=O)(=O)c5ccc(NCCSc6ccccc6)c([N+](=O)[O-])c5)nn4)CC3)c(OC)c2)c1 [B2Q080-01, 6-[4-[[4-(5-Ethoxypyridin-3-yl)-2-methoxyphenyl]methyl]piperazin-1-yl]-N-[3-nitro-4-(2-phenylsulfanylethylamino)phenyl]sulfonylpyridazine-3-carboxamide]

ASMS ratio (%) n = 1 [2]: 2.5%
ASMS ratio (%) n = 2 [2]: 0.2%
Compound: CCOc1cncc(-c2ccc(C(=O)N3CCN(c4ccc(C(=O)Nc5ccc(OC)cc5)nn4)CC3)c3ccccc23)c1 [B1O014-01, 6-[4-[4-(5-Ethoxypyridin-3-yl)naphthalene-1-carbonyl]piperazin-1-yl]-N-(4-methoxyphenyl)pyridazine-3-carboxamide]

ASMS ratio (%) n = 1 [1]: −3.3%
ASMS ratio (%) n = 2 [1]: 0.5%
Compound: CCOc1cncc(-c2ccc(CN3CCN(c4ccc(C(=O)NCC(F)(F)F)cc4)CC3)cc2F)c1 [B1K052-01, 4-[4-[[4-(5-Ethoxypyridin-3-yl)-3-fluorophenyl]methyl]piperazin-1-yl]-N-(2,2,2-trifluoroethyl)benzamide]

ASMS ratio (%) n = 1 (AS-MS, mixture library, Bcl-2): 22.0%
ASMS ratio (%) n = 2 (AS-MS, mixture library, Bcl-2): 4.7%
Compound: CCOc1cncc(-c2cc(CN3CCN(c4ccc(C(=O)NS(=O)(=O)CC56CC7CC(CC(C7)C5)C6)nn4)CC3)cc(OC(F)(F)F)c2)c1 [B2A090-01, N-(1-Adamantylmethylsulfonyl)-6-[4-[[3-(5-ethoxypyridin-3-yl)-5-(trifluoromethoxy)phenyl]methyl]piperazin-1-yl]pyridazine-3-carboxamide]

ASMS ratio (%) n = 1 (AS-MS, mixture library, Bcl-2): 0.0%
ASMS ratio (%) n = 2 (AS-MS, mixture library, Bcl-2): 0.0%
Compound: CCOc1cccc(-c2cc(CN3CCN(c4ccc(C(=O)N(CC)CC)nn4)CC3)cc(OC(C)C)c2)c1 [B4J083-01, 6-[4-[[3-(3-Ethoxyphenyl)-5-propan-2-yloxyphenyl]methyl]piperazin-1-yl]-N,N-diethylpyridazine-3-carboxamide]
